Results: US7572765B2, “Conformationally constrained parathyroid hormone (PTH) analogs” (The General Hospital Corporation, priority 2001, dated 2009)
Square brackets hold non-standard residues; d marks the D form. Peptide text beside a SMILES is read from it. hArg = N=C(N)NCCCC[C@H](N)C(=O)O; Aib = CC(C)(N)C(=O)O

Columns and labels:
Assay type in all cases: cell-based
[1] = biological target: T1, P1R-delNt, truncated human P1R deleted for residues (24-181) (Homo sapiens, UniProt Q03431); assay: cAMP stimulation in COS-7 cells expressing hP1R-delNt; conditions: for EC50 / cAMP EMax(obs.): hP1R-delNT; for cAMP EMax(obs.): basal 9.5 ± 1.3, asterisk = plateau not attained
T1 construct: expressed in transfected cells; host or cells: COS-7 (transient, FuGENE 6)
T1 sequence (Q03431 with tags, fused parts or gaps limits assumed): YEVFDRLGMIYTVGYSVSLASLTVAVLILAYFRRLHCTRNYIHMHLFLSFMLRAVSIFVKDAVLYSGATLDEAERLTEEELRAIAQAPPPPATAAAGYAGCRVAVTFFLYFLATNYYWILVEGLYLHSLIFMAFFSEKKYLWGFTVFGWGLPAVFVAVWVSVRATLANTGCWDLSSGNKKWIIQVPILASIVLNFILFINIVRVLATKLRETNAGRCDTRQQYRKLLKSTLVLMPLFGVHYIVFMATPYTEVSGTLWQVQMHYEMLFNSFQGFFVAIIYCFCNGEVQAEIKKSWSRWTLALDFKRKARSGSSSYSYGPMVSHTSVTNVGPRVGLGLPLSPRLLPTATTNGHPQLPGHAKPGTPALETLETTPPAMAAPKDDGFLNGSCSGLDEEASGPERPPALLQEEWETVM
Procedure: (§1) Cell Culture. The cell line HKRK-B28 (Takasu, H., et al., J. Bone Miner. Res. 14:11-20 (1999)) was derived from the porcine kidney cell line, LLC-PK1 by stable transfection with plasmid DNA encoding the human P1R and expresses ˜280,000 receptors per cell. These cells, as well as COS-7 cells and SaOS-2-B10 cells, were cultured at […] in T-75 flasks ([…]) in Dulbecco's modified Eagle's medium (DMEM) supplemented with fetal bovine serum (10%), penicillin G (20 units/ml), streptomycin sulfate (20 μg/ml) and amphotericin B (0.05 μg/ml) in a humidified atmosphere containing 5% CO2. Stock solutions of EGTA/trypsin and antibiotics were from GIBCO; fetal bovine serum was from Hyclone Laboratories (Logan, Utah). COS-7 cells sub-cultured in 24-well plates were transfected with plasmid DNA (200 ng per well) encoding the wild-type human P1R or truncated human P1R deleted for residues (24-181) (Shimizu, M., et al., J. Biol. Chem. 275:21836-21843 (2000)) that was purified by cesium chloride/ethidium bromide density gradient centrifugation, and FuGENE 6 transfection reagent (Roche Indianapolis Ind.) according to the manufacturer's recommended procedure. All cells, in 24-well plates, were treated with fresh media and shifted to 33° C. for 12 to 24 h prior to assay.
(§2) cAMP Stimulation. Stimulation of cells with peptide analogs was performed in 24-well plates. Cells were rinsed with 0.5 mL of binding buffer (50 mM Tris-HCI, […], 5 mM KCl, 2 mM CaCl2, 5% heat-inactivated horse serum, 0.5% fetal bovine serum, adjusted to pH 7.5 with HCl) and treated with 200 μL of cAMP assay buffer (Delbecco's modified Eagle's medium containing 2 mM 3-isobutyl-1-methylxanthine, 1 mg/mL bovine serum albumin, 35 mM Hepes-NaOH, pH 7.4) and 100 μL of binding buffer containing varying amounts of peptide analog (final volume=300 μL). The medium was removed after incubation for 30 to 60 minutes at room temperature, and the cells were frozen on dry ice, lysed with 0.5 mL 50 mM HCl, and refrozen ([…]). The cAMP content of the diluted lysate was determined by radioimmunoassay. The EC50 response values were calculated using nonlinear regression (see below).
(§3) Data Calculation. Calculations were performed using Microsoft® Excel. Nonlinear regression analyses of binding and cAMP dose-response data were performed using the four-parameter equation: yp=Min+[(Max−Min)/(1+(IC50/x)^slope)]. The Excel Solver function was utilized for parameter optimization, as described previously (Carter, P. H., et al., Endocrinology 140: 4972-4981 (1999); Bowen, W. P., and Jerman, J. C., Trends in Pharmacol. Sci. 16: 413-417 (1995)). Differences between paired data sets were statistically evaluated using a one-tailed Student's t-test, assuming unequal variances for the two sets.
The possibility that the activity-enhancing effects of the Aib substitutions at positions 1 and 3 were mediated through the juxtamembrane (J) region of the receptor was investigated in COS-7 cells transiently transfected with P1R-delNt. P1R-delNt was a truncated P1R that lacked most of the amino-terminal extracellular domain.

[2] = biological target: T2, wild-type human P1R (hP1R-WT) (Homo sapiens, UniProt Q03431); assay: cAMP stimulation in COS-7 cells expressing hP1R-WT; conditions: for EC50 / cAMP EMax(obs.): hP1R-WT; for cAMP EMax(obs.): basal 10.3 ± 1.1, asterisk = plateau not attained
T2 construct: expressed in transfected cells; host or cells: COS-7 (transient, FuGENE 6)
T2 sequence (Q03431 27-593): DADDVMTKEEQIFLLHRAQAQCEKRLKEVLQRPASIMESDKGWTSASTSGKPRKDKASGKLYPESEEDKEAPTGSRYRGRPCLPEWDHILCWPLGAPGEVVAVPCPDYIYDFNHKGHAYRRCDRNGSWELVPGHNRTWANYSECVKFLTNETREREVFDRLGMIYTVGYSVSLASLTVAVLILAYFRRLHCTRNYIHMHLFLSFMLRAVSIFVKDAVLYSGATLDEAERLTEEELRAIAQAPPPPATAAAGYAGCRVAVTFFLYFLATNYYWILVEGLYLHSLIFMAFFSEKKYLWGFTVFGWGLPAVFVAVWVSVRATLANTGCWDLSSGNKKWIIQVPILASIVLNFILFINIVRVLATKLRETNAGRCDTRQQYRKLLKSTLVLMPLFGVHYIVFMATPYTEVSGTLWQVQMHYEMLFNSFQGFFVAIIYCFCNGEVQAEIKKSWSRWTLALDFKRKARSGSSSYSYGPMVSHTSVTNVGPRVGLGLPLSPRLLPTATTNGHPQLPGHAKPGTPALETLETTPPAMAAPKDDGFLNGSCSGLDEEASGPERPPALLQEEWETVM
Procedure: as §1, §2, §3

[3] = biological target: T2, wild-type human P1R (hP1R-WT); assay: Stimulation of inositol phosphate production (PLC) in COS-7 cells expressing hP1R-WT; conditions: for PLC EMAX(obs.) / EC50: hP1R-WT; for EC50: dash = no PLC response observed
Procedure: as §1
Stimulation of Inositol Phosphate Production. COS-7 cells transfected as above with P1R-WT were treated with serum-free, inositol-free DMEM containing 0.1% bovine serum albumin and [^3H]myo-inositol (NEN, Boston, Mass.) (2 μCi/mL) for 16 h prior to assay. At the time of the assay, the cells were rinsed with binding buffer containing LiCl (30 mM) and treated with the same buffer with or without a PTH analog. The cells were then incubated at 37° C. for 40 min, after which the buffer was removed and replaced by 0.5 mL of ice cold 5% trichloroacetic acid solution. After 3 h on ice, the lysate was collected and extracted twice with ethyl ether. The lysate was then applied to an ion exchange column (0.5 mL resin bed) and the total inositol phosphates were eluted as described previously (Berridge, M. J., et al., Biochem. J. 212:473-482 (1983)), and counted in liquid scintillation cocktail.

| cAMP potency, fold weaker on P1R-delNt than P1R-WT [1] | EC50 [1] | cAMP EMax(obs.) [1] | cAMP EMax ([2]; P1R-WT) | EC50 [2] | cAMP EMax(obs.) [2] | increase in IP formation ([3]; P1R-WT) | PLC EMAX(obs.) [3] | EC50 [3] | cAMP EMax ([1]; P1R-delNt) | cAMP potency, fold more potent than [M]PTH(1-14) ([1]; P1R-delNt) | PLC potency, fold more potent than [M]PTH(1-14) ([3]; P1R-WT) | Compound |
| --- | --- | --- | --- | --- | --- | --- | --- | --- | --- | --- | --- | --- |
| ~500 fold | 680 ± 110 nM | 220 ± 30 pmole/well | 240±50 picomole/well | 1.4 ± 0.7 nM | 240 ± 50 pmole/well | 4 fold | 4.2 ± 0.6 foldxbasal | 17 ± 2 nM | – | – | – | CCCC[C@H](NC(=O)[C@H](CCCNC(=N)N)NC(=O)[C@H](CCC(=O)O)NC(=O)[C@@H](NC(=O)[C@H](CO)NC(=O)[C@H](C)NC(=O)[C@H](CC(C)C)NC(=O)[C@H](Cc1c[nH]cn1)NC(=O)[C@H](CCCCN)NC(=O)CNC(=O)[C@H](CC(C)C)NC(=O)[C@H](CC(N)=O)NC(=O)[C@H](Cc1c[nH]cn1)NC(=O)[C@H](CCCC)NC(=O)[C@H](CC(C)C)NC(=O)[C@H](CCC(N)=O)NC(=O)[C@@H](NC(=O)[C@H](CCC(=O)O)NC(=O)[C@H](CO)NC(=O)[C@@H](NC(=O)[C@H](C)N)C(C)C)[C@@H](C)CC)C(C)C)C(=O)N[C@@H](CCC(N)=O)C(=O)N[C@@H](Cc1c[nH]c2ccccc12)C(=O)N[C@@H](CC(C)C)C(=O)N[C@@H](CCCNC(=N)N)C(=O)N[C@@H](CCCCN)C(=O)N[C@@H](CCCCN)C(=O)N[C@@H](CC(C)C)C(=O)N[C@@H](CCC(N)=O)C(=O)N[C@@H](CC(=O)O)C(=O)N[C@H](C(=O)N[C@@H](Cc1c[nH]cn1)C(=O)N[C@@H](CC(N)=O)C(=O)N[C@@H](Cc1ccc(O)cc1)C(N)=O)C(C)C [PTH(1-34), [Nle^8,21, Tyr^34]PTH(1-34)amide, reference compound] |
| – | – | 84 ± 4 pmole/well | – | – | 120 ± 10 pmole/well | – | – | – | – | – | – | CC[C@H](C)[C@H](NC(=O)[C@H](CCC(=O)O)NC(=O)C(C)(C)NC(=O)[C@@H](NC(=O)C(C)(C)N)C(C)C)C(=O)N[C@@H](CCC(N)=O)C(=O)N[C@@H](CC(C)C)C(=O)N[C@@H](CCSC)C(=O)N[C@@H](Cc1c[nH]cn1)C(=O)N[C@@H](CCC(N)=O)C(N)=O [[Aib^1,3,M]PTH(1-10), [Aib^1,3,Gln^10]PTH(1-10)] (H-[Aib]V[Aib]EIQLMHQ-NH2) |
| – | – | 220 ± 20 pmole/well | – | – | 190 ± 40 pmole/well | – | – | – | – | – | – | CC[C@H](C)[C@H](NC(=O)[C@H](CCC(=O)O)NC(=O)C(C)(C)NC(=O)[C@@H](NC(=O)C(C)(C)N)C(C)C)C(=O)N[C@@H](CCC(N)=O)C(=O)N[C@@H](CC(C)C)C(=O)N[C@@H](CCSC)C(=O)N[C@@H](Cc1c[nH]cn1)C(=O)N[C@@H](CCC(N)=O)C(=O)N[C@@H](CCCCNC(=N)N)C(N)=O [[Aib^1,3,M]PTH(1-11), AibValAibGluIleGlnLeuMetHisGlnHar] (H-[Aib]V[Aib]EIQLMHQ[hArg]-NH2) |
| – | 0.73 ± 0.16 nM | 250 ± 20 pmole/well | – | 1.2 ± 0.6 nM | 240 ± 40 pmole/well | 4 fold | 4.3 ± 0.6 foldxbasal | 71 ± 9 nM | 250±20 picomole/well | 55 fold | 66 fold | CC[C@H](C)[C@H](NC(=O)[C@H](CCC(=O)O)NC(=O)C(C)(C)NC(=O)[C@@H](NC(=O)C(C)(C)N)C(C)C)C(=O)N[C@@H](CCC(N)=O)C(=O)N[C@@H](CC(C)C)C(=O)N[C@@H](CCSC)C(=O)N[C@@H](Cc1c[nH]cn1)C(=O)N[C@@H](CCC(N)=O)C(=O)N[C@@H](CCCCNC(=N)N)C(=O)N[C@@H](C)C(=O)N[C@@H](CCCCN)C(=O)N[C@@H](Cc1c[nH]c2ccccc12)C(N)=O [[Aib^1,3,M]PTH(1-14), AibValAibGluIleGlnLeuMetHisGlnHarAlaLysTrp] (H-[Aib]V[Aib]EIQLMHQ[hArg]AKW-NH2) |
| – | – | 220 ± 20 pmole/well | – | – | 240 ± 50 pmole/well | 4 fold | 3.9 ± 0.5 foldxbasal | – | – | – | – | CC[C@H](C)[C@H](NC(=O)[C@H](CCC(=O)O)NC(=O)[C@H](C)NC(=O)[C@@H](NC(=O)[C@H](C)N)C(C)C)C(=O)N[C@@H](CCC(N)=O)C(=O)N[C@@H](CC(C)C)C(=O)N[C@@H](CCSC)C(=O)N[C@@H](Cc1c[nH]cn1)C(=O)N[C@@H](CCC(N)=O)C(=O)N[C@@H](CCCCNC(=N)N)C(=O)N[C@@H](C)C(=O)N[C@@H](CCCCN)C(=O)N[C@@H](Cc1c[nH]c2ccccc12)C(N)=O [[M]PTH(1-14), [Ala^3,12,Gln^10,Har^11,Trp^14]PTH(1-14)amide, reference compound] (H-AVAEIQLMHQ[hArg]AKW-NH2) |
| – | – | 110 ± 10 pmole/well | – | – | 140 ± 30 pmole/well | – | – | – | – | – | – | H-AVSEIQLMHNLGKH-NH2 [PTH(1-14), reference compound] |
